The values that follow are results of earlier work, collected in patent US11480580B2, “Methods and reagents to label bacteria and virus and identify their interacting proteins” (priority 2019, dated 2022).

The test system of the series is ZIKV. Conditions: prior studies.

On to `CN(C)CCCN1c2ccccc2Sc2ccc(Cl)cc21` [chlorpromazine], for which the ZIKV infection result is listed as “blocked”.
